Data reported in US9249085B2, “Aniline derivatives, their preparation and their therapeutic application” (FOVEA PHARMACEUTICALS, priority 2011, dated 2016).

Tests used:
[1] = target: recombinant human prostanoid EP4 receptor (Homo sapiens (Human), UniProt P35408); assay: Human prostanoid EP4 receptor binding assay ([3H]PGE2 displacement); conditions: HEK-293(T) membranes, 0.5 nM [3H]PGE2, 120 min at 22° C.; NC: not calculable; read-out: In vitro potency EP4 (h) IC50
Experimental: Test 1.1: Human Prostanoid EP4 Receptor Binding Assay
Cell membrane homogenate from Human embryonic kidney HEK-293(T) cells expressing recombinant human prostanoid EP4 receptor was used to perform Prostanoid receptor radioligand binding assays.
The competition reaction was initiated by incubation of membrane protein homogenate (20 μg protein) for 120 min at 22° C. with 0.5 nM [^3H]PGE2 ligand in the absence or presence of the test compound in a buffer containing 10 mM MES/KOH (pH 6.0), 10 mM MgCl2 and 1 mM EDTA.
Non-specific binding was determined in the presence of 10 μM PGE2 (the corresponding non-radioactive prostanoid). Affinity of the compound binding to hEP4 receptor was measured by displacement of the radiolabeled ligand in the presence of varying doses of tested compound.
Incubations were terminated by rapid filtration under vacuum through glass fiber filters (GF/B, Packard) presoaked with 0.3% PEI and washed several times with ice-cold 50 mM Tris-HCl using a 96-sample cell harvester (Unifilter, Packard).
The filters were dried and the residual radioactivity bound to the individual filters determined with addition of scintillation cocktail (Microscint 0, Packard) by a scintillation counter (Topcount, Packard).
The results were expressed as a percent inhibition of the control radioligand specific binding.
The standard reference compound PGE2, was tested in at several concentrations to obtain a competition curve to determined IC50.
(§1) Analysis and Expression of Results
The specific ligand binding to the receptors is defined as the difference between the total binding and the nonspecific binding determined in the presence of an excess of unlabelled ligand. The results are expressed as a percent of control specific binding ((measured specific binding/control specific binding)×100) obtained in the presence of the test compounds. The IC50 values (concentration causing a half-maximal inhibition of control specific binding) and Hill coefficients (nH) were determined by non-linear regression analysis of the competition curves generated with mean replicate values using Hill equation curve fitting (Y=D+[(A−D)/(1+(C/C50)nH)], where Y=specific binding, D=minimum specific binding, A=maximum specific binding, C=compound concentration, C50=IC50, and nH=slope factor). This analysis was performed using a software developed at Cerep (Hill software) and validated by comparison with data generated by the commercial software SigmaPlot® 4.0 for Windows® (© 1997 by SPSS Inc.). The inhibition constants (Ki) were calculated using the Cheng Prusoff equation (Ki=IC50/(1+(L/KD)), where L=concentration of radioligand in the assay, and KD=affinity of the radioligand for the receptor). A scatchard plot is used to determine the Kd.

[2] = target: recombinant human prostanoid EP2 receptor (Homo sapiens (Human), UniProt P43116); assay: Human prostanoid EP2 receptor cellular functional assay (cAMP, HTRF); format: cell-based; conditions: for EC50: CHO cells expressing recombinant human EP2, cAMP by HTRF, 30 min, 37° C., read-out: In vitro functional assay EP2 (h) EC50; for In vitro functional assay EP2 (h) % response: percent of control specific agonist response (10 μM PGE2)
Experimental: Test 1.2: Human Prostanoid EP2 Receptor Cellular Functional Assay
Human CHO cells expressing the recombinant human prostanoid EP2 receptor were suspended in assay medium (HBSS buffer (Invitrogen) containing 20 mM HEPES (pH7.4) and 500 μM isobutyl-methylxanthine IBMX) and plated out to yield approximately 1×10^4 cells/well in a 96-well. Following this, cells were incubated with agonists for 30 min in the presence of the test compounds. For stimulated control measurements, separate assay wells contain 10 μM PGE2 (control specific agonist). All incubations were carried out at 37° C. in a 5% CO2 atmosphere. Following incubation, the amount of cAMP in each well was determined by HTRF method. The cells are lysed and the fluorescence acceptor (D2-labeled cAMP) and fluorescence donor (anti-cAMP antibody labeled with europium cryptate) are added. After 60 min at room temperature, the fluorescence transfer is measured at λ ex=337 nm and λ em=620 and 665 nm using a microplate reader (Rubystar, BMG).
The cAMP concentration is determined by dividing the signal measured at 665 nm by that measured at 620 nm (ratio).
The standard reference agonist PGE2 was tested at several concentrations to generate a concentration-response curve to determined EC50.
as §1
The results are expressed as a percent of control specific agonist response ((measured specific response/control specific agonist response)×100) obtained in the presence of the test compounds. The EC50 values (concentration producing a half-maximal specific response) were determined by non-linear regression analysis of the concentration-response curves generated with mean replicate values using Hill equation curve fitting (Y=D+[(A−D)/(1+(C/C50)nH)], where Y=specific response, D=minimum specific response, A=maximum specific response, C=compound concentration, and C50=EC50 and nH=slope factor). This analysis was performed using a software developed at Cerep (Hill software) and validated by comparison with data generated by the commercial software SigmaPlot® 4.0 for Windows® (© 1997 by SPSS Inc.).

Chain of recombinant human prostanoid EP2 receptor (P43116 whole entry): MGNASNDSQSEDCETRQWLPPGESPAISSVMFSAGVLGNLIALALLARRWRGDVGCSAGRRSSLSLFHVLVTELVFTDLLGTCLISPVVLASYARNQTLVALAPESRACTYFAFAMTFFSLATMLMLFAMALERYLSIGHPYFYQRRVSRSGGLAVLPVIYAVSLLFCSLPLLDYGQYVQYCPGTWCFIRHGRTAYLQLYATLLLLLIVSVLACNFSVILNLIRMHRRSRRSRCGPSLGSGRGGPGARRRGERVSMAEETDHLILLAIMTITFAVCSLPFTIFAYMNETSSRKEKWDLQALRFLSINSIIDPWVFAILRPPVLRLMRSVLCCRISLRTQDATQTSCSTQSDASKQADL
Chain of recombinant human prostanoid EP4 receptor (P35408 whole entry): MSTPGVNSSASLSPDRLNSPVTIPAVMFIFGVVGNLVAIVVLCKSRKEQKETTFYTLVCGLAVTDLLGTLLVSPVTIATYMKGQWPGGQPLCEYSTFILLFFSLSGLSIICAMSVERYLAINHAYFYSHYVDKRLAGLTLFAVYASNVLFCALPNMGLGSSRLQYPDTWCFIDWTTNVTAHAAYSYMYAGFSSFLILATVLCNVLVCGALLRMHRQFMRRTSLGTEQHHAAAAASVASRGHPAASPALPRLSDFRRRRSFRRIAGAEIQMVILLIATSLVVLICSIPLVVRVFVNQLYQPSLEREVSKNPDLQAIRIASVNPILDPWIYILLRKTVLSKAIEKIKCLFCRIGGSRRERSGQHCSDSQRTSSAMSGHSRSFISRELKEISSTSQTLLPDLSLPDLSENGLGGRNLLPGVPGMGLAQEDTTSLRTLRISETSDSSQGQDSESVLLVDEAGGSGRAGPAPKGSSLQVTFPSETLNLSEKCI

Row | SMILES | IC50 [1] | EC50 [2] | In vitro functional assay EP2 (h) % response [2]
1 | O=C(O)COc1ccc(Cl)c(NCc2cc(-c3cccc(F)c3)ccc2F)c1Cl [I(r), 2-[2,4-Dichloro-3-[[2-fluoro-5-(3-fluorophenyl)phenyl]methylamino]phenoxy]acetic acid] | > 300 nM | 45 nM | 78%
2 | Cc1ccc(OCC(=O)O)c(C)c1NCc1cc(-c2cccc(F)c2)cc(F)c1C [I(aw), 2-[3-[[3-fluoro-5-(3-fluorophenyl)-2-methyl-phenyl]methylamino]-2,4-dimethyl-phenoxy]acetic acid] | > 300 nM | 3 nM | 80%
3 | COc1c(C)cc(-c2cccc(F)c2)cc1CNc1c(C)ccc(OCC(=O)O)c1C [I(al), 2-[3-[[5-(3-fluorophenyl)-2-methoxy-3-methyl-phenyl]methylamino]-2,4-dimethyl-phenoxy]acetic acid] | > 300 nM | 0.9 nM | 70%
4 | Cc1cc(-c2cccc(F)c2)cc(CNc2c(C)ccc(OCC(=O)O)c2C)c1C [I(ak), 2-[3-[[5-(3-fluorophenyl)-2,3-dimethyl-phenyl]methylamino]-2,4-dimethyl-phenoxy]acetic acid] | > 300 nM | 2 nM | 113%
5 | O=C(O)COc1ccc(Cl)c(NCc2cc(-c3cccc(F)c3)ccc2F)c1F [I(k), 2-[4-Chloro-2-fluoro-3-[[2-fluoro-5-(3-fluorophenyl)phenyl]methylamino]phenoxy]acetic acid] | > 300 nM | 73 nM | 77%
6 | Cc1c(OCC(=O)O)ccc(F)c1NCc1cc(-c2cccc(F)c2)ccc1F [I(m), 2-[4-Fluoro-3-[[2-fluoro-5-(3-fluorophenyl)phenyl]methylamino]-2-methyl-phenoxy]acetic acid] | – | 10 nM | 89%
7 | N#Cc1c(OCC(=O)O)ccc(F)c1NCc1cc(-c2cccc(F)c2)ccc1F [I(an), 2-[2-cyano-4-fluoro-3-[[2-fluoro-5-(3-fluorophenyl)phenyl]methylamino]phenoxy]acetic acid] | – | 9 nM | 91%
8 | Cc1ccc(OCC(=O)O)c(C)c1NCc1cc(-c2cccc(F)c2)ccc1F [I(j), 2-[3-[[2-Fluoro-5-(3-fluorophenyl)phenyl]methylamino]-2,4-dimethyl-phenoxy]acetic acid] | – | 26 nM | 80%
9 | O=C(O)COc1ccc(F)c(NCc2cccc(-c3cccc(F)c3)c2)c1F [I(e), 2-[2,4-Difluoro-3-[[3-(3-fluorophenyl)phenyl]methylamino]phenoxy]acetic acid] | – | 160 nM | 65%
10 | Cc1c(OCC(=O)O)ccc(F)c1NCc1cc(O)cc(-c2cccc(F)c2)c1 [I(ah), 2-[4-fluoro-3-[[3-(3-fluorophenyl)-5-hydroxy-phenyl]methylamino]-2-methyl-phenoxy]acetic acid] | – | 8 nM | 74%
11 | O=C(O)COc1ccc(F)c(NCc2cc(O)cc(-c3cccc(F)c3)c2)c1F [I(p), 2-[2,4-Difluoro-3-[[3-(3-fluorophenyl)-5-hydroxy-phenyl]methylamino]phenoxy]acetic acid] | – | 17 nM | 70%
12 | O=C(O)COc1ccc(F)c(NCc2cc(-c3cccc(F)c3)ccc2F)c1Cl [I(o), 2-[2-Chloro-4-fluoro-3-[[2-fluoro-5-(3-fluorophenyl)phenyl]methylamino]phenoxy]acetic acid] | – | 34 nM | 74%

Next, values leading:

Row | IC50 [1] | EC50 [2] | In vitro functional assay EP2 (h) % response [2] | SMILES
13 | > 300 nM | 3 nM | 97% | Cc1c(F)cc(-c2cccc(F)c2)cc1CNc1c(F)ccc(OCC(=O)O)c1F [I(aa), 2-[2,4-difluoro-3-[[3-fluoro-5-(3-fluorophenyl)-2-methylphenyl]methylamino]phenoxy]acetic acid]
14 | > 300 nM | 6 nM | 91% | Cc1cc(-c2cccc(F)c2)cc(CNc2c(F)ccc(OCC(=O)O)c2C)c1C [I(at), 2-[4-fluoro-3-[[5-(3-fluorophenyl)-2,3-dimethyl-phenyl]methylamino]-2-methyl-phenoxy]acetic acid]
15 | – | 5 nM | 97% | Cc1c(F)cc(-c2cccc(F)c2)cc1CNc1c(F)ccc(OCC(=O)O)c1C [I(av), 2-[4-fluoro-3-[[3-fluoro-5-(3-fluorophenyl)-2-methyl-phenyl]methylamino]-2-methyl-phenoxy]acetic acid]
16 | > 300 nM | 2 nM | 101% | Cc1cc(-c2cccc(F)c2)cc(CNc2c(F)ccc(OCC(=O)O)c2C)c1F [I(ad), 2-[4-fluoro-3-[[2-fluoro-5-(3-fluorophenyl)-3-methyl-phenyl]methylamino]-2-methyl-phenoxy]acetic acid]
17 | – | 17 nM | 73% | COc1c(C)cc(-c2cccc(F)c2)cc1CNc1c(F)ccc(OCC(=O)O)c1F [I(t), 2-[2,4-Difluoro-3-[[5-(3-fluorophenyl)-2-methoxy-3-methyl-phenyl]methylamino]phenoxy]acetic acid]
18 | > 300 nM | < 1 nM | 85% | Cc1cc(-c2cccc(F)c2)cc(CNc2c(C)ccc(OCC(=O)O)c2C)c1F [I(ag), 2-[3-[[2-fluoro-5-(3-fluorophenyl)-3-methyl-phenyl]methylamino]-2,4-dimethyl-phenoxy]acetic acid]
19 | – | 69 nM | 66% | Cc1ccc(-c2cccc(F)c2)cc1CNc1c(F)ccc(OCC(=O)O)c1F [I(c), 2-[2,4-Difluoro-3-[[5-(3-fluorophenyl)-2-methyl-phenyl]methylamino]phenoxy]acetic acid]
20 | – | 13 nM | 88% | Cc1cc(-c2cccc(F)c2)cc(CNc2c(F)ccc(OCC(=O)O)c2F)c1F [I(h), 2-[2,4-difluoro-3-[[2-fluoro-5-(3-fluorophenyl)-3-methyl-phenyl]methylamino]phenoxy]acetic acid]
21 | – | 24 nM | 76% | O=C(O)COc1ccc(F)c(NCc2cc(-c3cccc(F)c3)ccc2Cl)c1F [I(l), 2-[3-[[2-Chloro-5-(3-fluorophenyl)phenyl]methylamino]-2,4-difluoro-phenoxy]acetic acid]
